Laboratory results as given in patent US10239887B2, “Positive allosteric modulators of the muscarinic acetylcholine receptor M4” (Vanderbilt University, priority 2016, dated 2019).
Structures can show the parent of a compound that is named as a salt.

Target: T1, human mAChR M4 (Homo sapiens, UniProt P08173)
T1 sequence (P08173 1-479): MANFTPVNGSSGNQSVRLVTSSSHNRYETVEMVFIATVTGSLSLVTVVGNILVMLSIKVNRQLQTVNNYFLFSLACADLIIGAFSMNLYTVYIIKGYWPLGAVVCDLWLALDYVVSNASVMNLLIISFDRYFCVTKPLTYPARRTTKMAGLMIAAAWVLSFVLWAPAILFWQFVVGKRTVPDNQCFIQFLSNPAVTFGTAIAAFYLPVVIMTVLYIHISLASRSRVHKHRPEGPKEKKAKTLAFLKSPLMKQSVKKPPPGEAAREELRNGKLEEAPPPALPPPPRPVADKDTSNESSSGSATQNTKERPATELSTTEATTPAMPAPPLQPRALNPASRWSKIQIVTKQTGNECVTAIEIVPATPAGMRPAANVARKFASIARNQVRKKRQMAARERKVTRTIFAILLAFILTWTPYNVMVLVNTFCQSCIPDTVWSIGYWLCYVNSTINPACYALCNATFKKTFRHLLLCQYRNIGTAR
Assay: mAChR M4 cell-based functional assay (calcium flux), human M4
Conditions: for Emax: % ACh maximum at 30 μM

[1] = Human M4 EC50, CHO-K1 hM4-Gqi5 cells, calcium flux, increase in EC20 acetylcholine response
[2] = Human M4 EC50 (nM), Table 11, calcium flux, PAM activity with EC20 acetylcholine
[3] = Human M4 EC50 (nM), Table 10, calcium flux, PAM activity with EC20 acetylcholine
[4] = Human M4 EC50 (nM), Table 10, unit μM (bounds)

SMILES	Emax (Human M4)	Emax (Table 10)	EC50 [3]	also measured
Cc1nnc2oc3c(NC4CC5(COC5)C4)ncnc3c2c1C [Compound 71, 3,4-dimethyl-N-(2-oxaspiro[3.3]heptan-6-yl)pyrimido[4′,5′:4,5] furo[2,3-c]pyridazin-8-amine]	37.2%			EC50 [1]: > 10000 nM
Cc1nnc2sc3c(NCc4ccc(C(=O)NC5CC5(C)C)c(Cl)c4)ncnc3c2c1C (centres unmarked) [Compound 319, 2-chloro-N-(2,2-dimethylcyclopropyl)-4-[[(3,4-dimethylpyrimido [4′,5′:4,5]thieno[2,3-c]pyridazin-8-yl)amino]methyl]benzamide]				EC50 [2]: 544 nM; Emax (Table 11): 75.6%
Cc1nnc2sc3c(N4CC(C)(O)C4)ncnc3c2c1C [Compound 80, 1-(3,4-dimethylpyrimido [4′,5′:4,5]thieno[2,3-c]pyridazin-8-yl)-3-methyl-azetidin-3-ol]		62.1%		
Cc1nnc2sc3c(N4CC(Oc5ccccc5F)C4)ncnc3c2c1C [Compound 31, 8-(3-(2-fluorophenoxy)azetidin-1-yl)-3,4-dimethylpyrimido [4′,5′:4,5]thieno[2,3-c] pyridazine]	60%			EC50 [1]: 2160 nM
Cc1nnc2sc3c(N4CC(=O)C4)ncnc3c2c1C [Compound 36, 1-(3,4-dimethylpyrimido [4′,5′:4,5]thieno[2,3-c]pyridazin-8-yl) azetidin-3-one]	64%			EC50 [1]: 1000 nM
COc1ccc(CNc2ncnc3c2sc2nnc(C)c(C)c23)cc1F [Compound 27, N-(3-fluoro-4-methoxybenzyl)-3,4-dimethylpyrimido [4′,5′:4,5]thieno[2,3-c] pyridazin-8-amine]	62%			
Cc1nnc2sc3c(NC4CN(c5ncc(C6CC6)cc5Cl)C4)ncnc3c2c1C [Compound 82, N-[1-(3-chloro-5-cyclopropyl-2-pyridyl)azetidin-3-yl]-3,4-dimethyl-pyrimido [4′,5′:4,5]thieno[2,3-c] pyridazin-8-amine]		50.1%		EC50 [4]: > 10000 nM
Cc1nnc2sc3c(NCc4cccc(-c5ncccn5)c4)ncnc3c2c1C [Compound 327, 3,4-dimethyl-N-[(3-pyrimidin-2-ylphenyl)methyl]pyrimido [4′,5′:4,5]thieno[2,3-c] pyridazin-8-amine]				EC50 [2]: 1770 nM; Emax (Table 11): 64.6%
Cc1nnc2sc3c(NCc4ccc(C(=O)NC(C)C5(CO)CC5)c(Cl)c4)ncnc3c2c1C (centres unmarked) [Compound 323, 2-chloro-4-[[(3,4-dimethylpyrimido [4′,5′:4,5]thieno[2,3-c]pyridazin-8-yl)amino]methyl]-N-[1-[1-(hydroxymethyl)cyclopropyl]ethyl]benzamide]				EC50 [2]: 449 nM; Emax (Table 11): 76.3%
Cc1nnc2sc3c(N4CC(O)(C5CC5)C4)ncnc3c2c1C [Compound 103, 3-cyclopropyl-1-(3,4-dimethylpyrimido [4′,5′:4,5]thieno[2,3-c]pyridazin-8-yl)azetidin-3-ol]		80.3%	122 nM	
Cc1nnc2sc3c(N4CC(F)(F)C4)ncnc3c2c1C [Compound 21, 8-(3,3-difluoroazetidin-1-yl)-3,4-dimethylpyrimido [4′,5′:4,5]thieno[2,3-c] pyridazine]	64%			EC50 [1]: 426 nM
Cc1nnc2sc3c(NCc4ccc(C(C)(C)N)cc4)ncnc3c2c1C [Compound 371, N-[[4-(1-amino-1-methyl-ethyl)phenyl]methyl]-3,4-dimethyl-pyrimido[4′,5′:4,5] thieno[2,3-c]pyridazin-8-amine]				EC50 [2]: 41.6 nM; Emax (Table 11): 93.6%
Cc1nnc2oc3c(NCc4ccc(C(C)(C)O)nc4)ncnc3c2c1C [Compound 74, 2-[5-[[(3,4-dimethylpyrimido [4′,5′:4,5]furo[2,3-c]pyridazin-8-yl)amino]methyl]-2-pyridyl]propan-2-ol]	59.5%			EC50 [1]: 9160 nM
Cc1cc(C)c2c(n1)oc1c(N3CC4(COC4)C3)ncnc12 [Compound 56, 7,9-dimethyl-4-(2-oxa-6-azaspiro[3.3]heptan-6-yl)pyrido[3′,2′:4,5]furo[3,2-d]pyrimidine]	37.7%			EC50 [1]: 3370 nM
CNc1ncnc2c1oc1nc(C)c(Cl)c(C)c12 [Compound 44, 8-chloro-N,7,9-trimethyl-pyrido[3′,2′:4,5]furo[3,2-d]pyrimidin-4-amine hydrochloride]	39.8%			EC50 [1]: 1690 nM
COCCN1CCN(c2ccc(CNc3ncnc4c3sc3nnc(C)c(C)c34)cc2)CC1 [Compound 120, N-[[4-[4-(2-methoxyethyl)piperazin-1-yl]phenyl]methyl]-3,4-dimethyl-pyrimido [4′,5′:4,5]thieno[2,3-c] pyridazin-8-amine]		100%	226 nM	
Cc1nnc2sc3c(N4CC(Oc5ccccc5)C4)ncnc3c2c1C [Compound 33, 3,4-dimethyl-8-(3-phenoxyazetidin-1-yl) pyrimido[4′,5′:4,5]thieno [2,3-c]pyridazine]	54%			EC50 [1]: 4430 nM
Cc1cc(C)c2c(n1)oc1c(NC3CN(c4ncc(F)cn4)C3)ncnc12 [Compound 59, N-[1-(5-fluoropyrimidin-2-yl)azetidin-3-yl]-7,9-dimethyl-pyrido[3′,2′:4,5]furo[3,2-d]pyrimidin-4-amine hydrochloride]	34.9%			

Further lines, with some results ahead:

Emax (Human M4)	Emax (Table 10)	EC50 [3]	SMILES	also measured
	61%	382 nM	Cc1ncc(CNc2ncnc3c2sc2ncc(Cl)c(C)c23)cn1 [Compound 238, 8-chloro-9-methyl-N-[(2-methylpyrimidin-5-yl)methyl]pyrido [3′,2′:4,5]thieno[3,2-d] pyrimidin-4-amine dihydrochloride]	
	61.3%	779 nM	Cc1nnc2sc3c(NCc4ccc(C(C)(O)C5CC5)cc4)ncnc3c2c1C (centres unmarked) [Compound 143, 1-cyclopropyl-1-[4-[[(3,4-dimethylpyrimido [4′,5′:4,5]thieno[2,3-c]pyridazin-8-yl)amino]methyl]phenyl]ethanol]	
	88.4%	276 nM	Cc1nnc2sc3c(NCc4ccc(C(=O)N5CCC5)cc4)ncnc3c2c1C [Compound 131, azetidin-1-yl-[4-[[(3,4-dimethylpyrimido [4′,5′:4,5]thieno[2,3-c]pyridazin-8-yl)amino]methyl]phenyl]methanone]	
	41.9%		COc1ccc(CNc2ncnc3c2oc2nc(C)c(Cl)c(C)c23)cc1F [Compound 253, 8-chloro-N-[(3-fluoro-4-methoxy-phenyl)methyl]-7,9-dimethyl-pyrido [3′,2′:4,5]furo[3,2-d] pyrimidin-4-amine hydrochloride]	EC50 [4]: > 10000 nM
	42.5%	1200 nM	Cc1cc(C)c2c(n1)oc1c(NCc3ccc(S(C)(=O)=O)cc3)ncnc12 [Compound 292, 7,9-dimethyl-N-[(4-methylsulfonylphenyl)methyl]pyrido[3′,2′:4,5]furo [3,2-d]pyrimidin-4-amine hydrochloride]	
	63%	841 nM	Cc1c(Cl)cnc2sc3c(NC4CN(c5ncc(F)cn5)C4)ncnc3c12 [Compound 225, 8-chloro-N-[1-(5-fluoropyrimidin-2-yl)azetidin-3-yl]-9-methyl-pyrido [3′,2′:4,5]thieno[3,2-d] pyrimidin-4-amine]	
	80.6%	222 nM	Cc1nnc2sc3c(N(C)Cc4ccc(C(C)(C)O)cc4)ncnc3c2c1C [Compound 137, 2-[4-[[(3,4-dimethylpyrimido [4′,5′:4,5]thieno[2,3-c]pyridazin-8-yl)-methyl-amino]methyl]phenyl] propan-2-ol]	
	87.4%	27.7 nM	Cc1nnc2sc3c(NCc4ccc(C(=O)NC5CC(F)C5)cc4)ncnc3c2c1C (centres unmarked) [Compound 151, 4-[[(3,4-dimethylpyrimido [4′,5′:4,5]thieno[2,3-c]pyridazin-8-yl)amino]methyl]-N-(3-fluorocyclobutyl) benzamide]	
	61.2%	2290 nM	Cc1nnc2oc3c(NCc4ccc(C(C)(C)O)cc4)ncnc3c2c1C [Compound 299, 2-[4-[[(3,4-dimethylpyrimido [4′,5′:4,5]furo[2,3-c]pyridazin-8-yl)amino]methyl]phenyl]propan-2-ol]	
	52.5%	722 nM	Cc1nnc2sc3c(NCc4ccc(F)c(C(C)(C)O)c4)ncnc3c2c1C [Compound 175, 2-[5-[[(3,4-dimethylpyrimido [4′,5′:4,5]thieno[2,3-c]pyridazin-8-yl)amino]methyl]-2-fluoro-phenyl]propan-2-ol]	
	56.1%	5580 nM	Cc1c(Cl)cnc2sc3c(NCc4ccc5c(c4)COC5)ncnc3c12 [Compound 234, 8-chloro-N-(1,3-dihydroisobenzofuran-5-ylmethyl)-9-methyl-pyrido [3′,2′:4,5]thieno[3,2-d] pyrimidin-4-amine]	
	24.4%	3310 nM	Cc1nnc2sc3c(N4CCC(C(=O)Nc5ccc(C(F)(F)F)cc5)C4)ncnc3c2c1C (centres unmarked) [Compound 173, 1-(3,4-dimethylpyrimido [4′,5′:4,5]thieno[2,3-c]pyridazin-8-yl)-N-[4-(trifluoromethyl)phenyl] pyrrolidine-3-carboxamide]	
	51.5%	6550 nM	Cc1cc(C)c2c(n1)sc1c(NC3CN(c4ncc(C(F)(F)F)cn4)C3)ncnc12 [Compound 207, 7,9-dimethyl-N-[1-[5-(trifluoromethyl)pyrimidin-2-yl]azetidin-3-yl]pyrido[3′,2′:4,5] thieno[3,2-d]pyrimidin-4-amine]	
